For experiment [1], the target named is T1, Angiotensin-converting enzyme (Homo sapiens, UniProt P12821). Nature of the experiment: Inhibition of human fully glycosylated ACE N-terminal domain expressed in CHO cells using Cbz-Phe-His-Leu as substrate preincubated for 15 mins followed by substrate addition measured after 10 mins by fluorescence spectrophotometric analysis.
The target in experiment [2] is T1, Angiotensin-converting enzyme. Nature of the experiment: Inhibition of human fully glycosylated ACE C-terminal domain expressed in CHO cells using Cbz-Phe-His-Leu as substrate preincubated for 15 mins followed by substrate addition measured after 10 mins by fluorescence spectrophotometric analysis.
The target is the same in experiment [3]. Nature of the experiment: Inhibition of human fully glycosylated ACE N-terminal domain expressed in CHO cells using MCA-RPPGFSAFK(Dnp)-OH as substrate preincubated for 15 mins followed by substrate addition measured after 10 mins by fluorescence spectrophotometric analysis.
For experiment [4] the target is unchanged. Nature of the experiment: Inhibition of human fully glycosylated ACE C-terminal domain expressed in CHO cells using MCA-RPPGFSAFK(Dnp)-OH as substrate preincubated for 15 mins followed by substrate addition measured after 10 mins by fluorescence spectrophotometric analysis.
Experiment [5] shares this target. The experiment in a line: Inhibition of human fully glycosylated ACE N-terminal domain expressed in CHO cells using Cbz-Phe-His-Leu as substrate preincubated for 15 mins followed by substrate addition measured after 10 mins by Morrison's plot analysis.
Experiment [6] has the same target. Nature of the experiment: Inhibition of human fully glycosylated ACE C-terminal domain expressed in CHO cells using Cbz-Phe-His-Leu as substrate preincubated for 15 mins followed by substrate addition measured after 10 mins by Morrison's plot analysis.

T1 sequence (P12821 whole entry, the tested form may be a part): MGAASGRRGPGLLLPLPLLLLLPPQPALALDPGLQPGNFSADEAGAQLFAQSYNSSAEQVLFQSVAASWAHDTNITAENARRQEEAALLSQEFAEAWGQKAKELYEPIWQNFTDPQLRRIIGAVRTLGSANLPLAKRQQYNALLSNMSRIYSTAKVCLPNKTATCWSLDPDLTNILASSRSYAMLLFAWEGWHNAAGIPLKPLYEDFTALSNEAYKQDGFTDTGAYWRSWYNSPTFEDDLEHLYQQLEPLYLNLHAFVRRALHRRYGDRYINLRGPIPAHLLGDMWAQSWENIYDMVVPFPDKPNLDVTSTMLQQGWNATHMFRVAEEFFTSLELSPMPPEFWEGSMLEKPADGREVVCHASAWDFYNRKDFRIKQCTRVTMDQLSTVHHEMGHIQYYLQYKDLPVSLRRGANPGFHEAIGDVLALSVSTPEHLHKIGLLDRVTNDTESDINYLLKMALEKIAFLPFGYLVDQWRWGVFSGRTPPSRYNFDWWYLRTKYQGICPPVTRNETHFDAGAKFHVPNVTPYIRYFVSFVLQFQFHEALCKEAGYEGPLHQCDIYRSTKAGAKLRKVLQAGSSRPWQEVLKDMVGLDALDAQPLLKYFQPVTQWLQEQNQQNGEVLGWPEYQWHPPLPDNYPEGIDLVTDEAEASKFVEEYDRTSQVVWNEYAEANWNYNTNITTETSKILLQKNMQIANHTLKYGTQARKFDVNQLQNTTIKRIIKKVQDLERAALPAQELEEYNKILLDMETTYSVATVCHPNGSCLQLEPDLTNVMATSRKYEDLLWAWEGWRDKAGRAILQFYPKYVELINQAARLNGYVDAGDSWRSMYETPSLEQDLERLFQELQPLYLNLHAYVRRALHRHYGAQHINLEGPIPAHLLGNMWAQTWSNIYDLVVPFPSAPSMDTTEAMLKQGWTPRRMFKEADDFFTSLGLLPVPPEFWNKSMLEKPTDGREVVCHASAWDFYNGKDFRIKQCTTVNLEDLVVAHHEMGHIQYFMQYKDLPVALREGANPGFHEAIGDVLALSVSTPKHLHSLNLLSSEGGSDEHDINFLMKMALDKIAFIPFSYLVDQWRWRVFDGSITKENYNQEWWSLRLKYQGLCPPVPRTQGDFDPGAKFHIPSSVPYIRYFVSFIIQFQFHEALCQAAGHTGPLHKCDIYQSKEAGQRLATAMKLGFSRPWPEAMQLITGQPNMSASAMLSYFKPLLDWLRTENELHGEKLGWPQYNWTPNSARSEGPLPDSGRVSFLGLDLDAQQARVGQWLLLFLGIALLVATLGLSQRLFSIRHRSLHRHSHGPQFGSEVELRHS

As a reminder, the IC50 is the midpoint of a concentration-inhibition curve. On to `O=C(N[C@H]1CCS[C@H]2CCC[C@@H](C(=O)O)N2C1=O)[C@H](Cc1ccccc1)SS[C@@H](Cc1ccccc1)C(=O)N[C@H]1CCS[C@H]2CCC[C@@H](C(=O)O)N2C1=O`, for which the IC50 in experiment [1] amounted to 2200 nM; in experiment [2] it was 2800 nM; in experiment [3] it was 2100 nM; in experiment [4] it was 1800 nM.

A word on the Ki: it is a measure of affinity in units of concentration, obtained from inhibition or displacement. As for `O=C(N[C@H]1CCS[C@H]2CCC[C@@H](C(=O)O)N2C1=O)[C@@H](S)Cc1ccccc1` [OMAPATRILAT], the Ki in experiment [5] was 0.015 nM; in experiment [6], 0.016 nM.

These data come from ChEMBL document CHEMBL4266030, “Molecular Basis for Multiple Omapatrilat Binding Sites within the ACE C-Domain: Implications for Drug Design” (J Med Chem, 2018).
